Reference: ChEMBL document CHEMBL1201862, “PubChem BioAssay data set” (2004)
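All cell lines were grown in 96-well plates and treated with compound for 48 hours. GI50: concentration for 50% inhibition of growth.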 The source made the active and inactive calls. Rule as the data show it: active = GI50 up to about 1.1 µM and inactive = higher.

What was measured:
Test in all cases: NCI-60 cell line screen, 48 h
[1] = tested on: Malme-3M
[2] = tested on: OVCAR-8
[3] = tested on: RPMI-8226
[4] = tested on: OVCAR-4
[5] = tested on: TK-10
[6] = tested on: CCRF-CEM
[7] = tested on: HOP-62
[8] = tested on: HCC 2998
[9] = tested on: UACC-62
[10] = tested on: NCI-H226
[11] = tested on: HT-29
[12] = tested on: EKVX
[13] = tested on: MOLT-4
[14] = tested on: A498
[15] = tested on: SF-268
[16] = tested on: IGROV-1
[17] = tested on: SR

Structure (SMILES)	GI50 [1]	GI50 [2]	GI50 [3]	GI50 [4]	GI50 [5]	GI50 [6]	GI50 [7]	GI50 [8]	GI50 [9]	GI50 [10]	GI50 [11]	GI50 [12]	GI50 [13]	GI50 [14]	GI50 [15]	GI50 [16]	GI50 [17]
Cc1ccccc1SC(/C=C/NNC1=NN=C(c2ccccc2)C(c2ccccc2)N1)c1ccccc1 (stereo not drawn)	22.4 µM (inactive)	13.7 µM (inactive)	27.5 µM (inactive)	2.99 µM (inactive)	17.8 µM (inactive)	27.3 µM (inactive)	17.7 µM (inactive)	40.6 µM (inactive)	29.4 µM (inactive)	18.3 µM (inactive)	29.8 µM (inactive)	27.2 µM (inactive)	41.7 µM (inactive)	23.7 µM (inactive)	24.9 µM (inactive)	27.4 µM (inactive)	
O=C(O)OC12CCCCCC1C(=O)C1CCCCC12 (stereo not drawn)	> 100 µM (inactive)	> 100 µM (inactive)	43.1 µM (inactive)	> 100 µM (inactive)	> 100 µM (inactive)	> 100 µM (inactive)	> 100 µM (inactive)		71.3 µM (inactive)	> 100 µM (inactive)	> 100 µM (inactive)	82.4 µM (inactive)	46 µM (inactive)		61.5 µM (inactive)		47 µM (inactive)
CCCCn1c2ccccc2c2ccc3c(c21)C(=O)C=CC3=O	> 100 µM (inactive)	> 100 µM (inactive)	> 100 µM (inactive)	> 100 µM (inactive)	> 100 µM (inactive)		> 100 µM (inactive)	> 100 µM (inactive)	> 100 µM (inactive)	> 100 µM (inactive)	0.991 µM (active)		54.8 µM (inactive)	> 100 µM (inactive)	> 100 µM (inactive)	> 100 µM (inactive)	> 100 µM (inactive)
[O-][S+]1c2ccccc2N=C(c2cccs2)CC1c1ccccc1O (stereo not drawn)	> 100 µM (inactive)	> 100 µM (inactive)	> 100 µM (inactive)	> 100 µM (inactive)	> 100 µM (inactive)	> 100 µM (inactive)	97.5 µM (inactive)	96.6 µM (inactive)	56.2 µM (inactive)	> 100 µM (inactive)	> 100 µM (inactive)	> 100 µM (inactive)	> 100 µM (inactive)	25.4 µM (inactive)	> 100 µM (inactive)	16.5 µM (inactive)	
Cc1ccc(-c2cc(=O)c3cc(C)c(C)c(C(=O)O)c3o2)cc1[N+](=O)[O-]	> 100 µM (inactive)	> 100 µM (inactive)	> 100 µM (inactive)	> 100 µM (inactive)	> 100 µM (inactive)	> 100 µM (inactive)			> 100 µM (inactive)	> 100 µM (inactive)	> 100 µM (inactive)	> 100 µM (inactive)	> 100 µM (inactive)		> 100 µM (inactive)	> 100 µM (inactive)	
CC(=O)c1sc(-c2nc(C)c(C(=O)/C=C\c3ccc(/C=C\C(=O)c4sc(-c5nc(C)c(C(C)=O)s5)nc4C)cc3)s2)nc1C	> 100 µM (inactive)	> 100 µM (inactive)	50.5 µM (inactive)	> 100 µM (inactive)	> 100 µM (inactive)	80.7 µM (inactive)	> 100 µM (inactive)	> 100 µM (inactive)	85.9 µM (inactive)	> 100 µM (inactive)	> 100 µM (inactive)	> 100 µM (inactive)	> 100 µM (inactive)		> 100 µM (inactive)	> 100 µM (inactive)	> 100 µM (inactive)
O=C(CCN1CCCC1)CC(c1ccccc1)c1c(O)c2ccccc2oc1=O (stereo not drawn)	> 100 µM (inactive)	> 100 µM (inactive)	> 100 µM (inactive)	> 100 µM (inactive)	> 100 µM (inactive)	> 100 µM (inactive)	> 100 µM (inactive)	> 100 µM (inactive)	> 100 µM (inactive)	> 100 µM (inactive)	> 100 µM (inactive)	> 100 µM (inactive)	> 100 µM (inactive)		> 100 µM (inactive)	> 100 µM (inactive)	> 100 µM (inactive)
Cc1ccccc1/C=N/C12CC3CC(CC(C3)C1)C2	> 100 µM (inactive)	> 100 µM (inactive)	> 100 µM (inactive)	> 100 µM (inactive)	> 100 µM (inactive)	> 100 µM (inactive)	> 100 µM (inactive)	> 100 µM (inactive)	> 100 µM (inactive)	> 100 µM (inactive)	> 100 µM (inactive)	> 100 µM (inactive)	> 100 µM (inactive)	> 100 µM (inactive)	> 100 µM (inactive)	> 100 µM (inactive)	
CSC(=S)c1ccc(C(=S)SC)cc1	> 100 µM (inactive)	> 100 µM (inactive)	> 100 µM (inactive)	> 100 µM (inactive)	> 100 µM (inactive)		> 100 µM (inactive)	> 100 µM (inactive)	> 100 µM (inactive)	> 100 µM (inactive)	> 100 µM (inactive)	> 100 µM (inactive)	> 100 µM (inactive)	> 100 µM (inactive)	> 100 µM (inactive)	> 100 µM (inactive)	> 100 µM (inactive)
Cn1c(N)nc(=O)c2c1N(C1OC(CO)C(O)C1O)CN2Cc1ccccc1 (stereo not drawn)	> 100 µM (inactive)	> 100 µM (inactive)	> 100 µM (inactive)	> 100 µM (inactive)	> 100 µM (inactive)		> 100 µM (inactive)	> 100 µM (inactive)	> 100 µM (inactive)	> 100 µM (inactive)	> 100 µM (inactive)	> 100 µM (inactive)	> 100 µM (inactive)	> 100 µM (inactive)	> 100 µM (inactive)	> 100 µM (inactive)	> 100 µM (inactive)
COc1cccc2c1N[S@](=O)S2	> 100 µM (inactive)		63.4 µM (inactive)		> 100 µM (inactive)	36.7 µM (inactive)			38.6 µM (inactive)	> 100 µM (inactive)	> 100 µM (inactive)	> 100 µM (inactive)	42.1 µM (inactive)		76 µM (inactive)	> 100 µM (inactive)	70.6 µM (inactive)
CCC(CO)Nc1nc2c(c(=O)n(C)c(=O)n2C)n1CCO (stereo not drawn)	> 100 µM (inactive)	> 100 µM (inactive)	> 100 µM (inactive)		> 100 µM (inactive)			> 100 µM (inactive)	> 100 µM (inactive)	> 100 µM (inactive)	> 100 µM (inactive)	> 100 µM (inactive)	> 100 µM (inactive)		> 100 µM (inactive)	> 100 µM (inactive)	> 100 µM (inactive)
O=C1C[C@@H]2[C@@H](CCC23CC3)N1	> 100 µM (inactive)	> 100 µM (inactive)	> 100 µM (inactive)	> 100 µM (inactive)	> 100 µM (inactive)	> 100 µM (inactive)	> 100 µM (inactive)	> 100 µM (inactive)	> 100 µM (inactive)	> 100 µM (inactive)	> 100 µM (inactive)	> 100 µM (inactive)	> 10 µM (inactive)	> 100 µM (inactive)	> 100 µM (inactive)	> 100 µM (inactive)	
C=CCn1c(=O)c(C(=O)NC(=O)OCC)cn(C2CCCCC2)c1=O	> 100 µM (inactive)	> 100 µM (inactive)	> 100 µM (inactive)	> 100 µM (inactive)	> 100 µM (inactive)	> 100 µM (inactive)	> 100 µM (inactive)	> 100 µM (inactive)	> 100 µM (inactive)	> 100 µM (inactive)	> 100 µM (inactive)	> 100 µM (inactive)	> 100 µM (inactive)	> 100 µM (inactive)		> 100 µM (inactive)	> 100 µM (inactive)
CCCCCCCCCCC(=O)CC(=O)c1c(O)cccc1O	35.9 µM (inactive)	35.7 µM (inactive)	21.1 µM (inactive)	43.1 µM (inactive)	46.2 µM (inactive)		24.1 µM (inactive)	27.8 µM (inactive)	41.9 µM (inactive)	17.9 µM (inactive)	30.7 µM (inactive)	38.5 µM (inactive)	20.4 µM (inactive)	30.9 µM (inactive)	41.1 µM (inactive)	46.8 µM (inactive)	33.6 µM (inactive)
Cc1nc2ccc(N)cc2nc1O	> 100 µM (inactive)	> 100 µM (inactive)	> 100 µM (inactive)	> 100 µM (inactive)	> 100 µM (inactive)	> 100 µM (inactive)	> 100 µM (inactive)	> 100 µM (inactive)	> 100 µM (inactive)			> 100 µM (inactive)	> 100 µM (inactive)	> 100 µM (inactive)		> 100 µM (inactive)	
NC(=O)C1C(=O)Oc2cccnc21 (stereo not drawn)	> 100 µM (inactive)	> 100 µM (inactive)	> 100 µM (inactive)		> 100 µM (inactive)	> 100 µM (inactive)	> 100 µM (inactive)		> 100 µM (inactive)	96.2 µM (inactive)	> 100 µM (inactive)	> 100 µM (inactive)	> 100 µM (inactive)			> 100 µM (inactive)	
O=C1OC(c2ccccc2)=N/C1=C\c1cccc2ccccc12	> 100 µM (inactive)	> 100 µM (inactive)	> 100 µM (inactive)	> 100 µM (inactive)	> 100 µM (inactive)	> 100 µM (inactive)	> 100 µM (inactive)	> 100 µM (inactive)	> 100 µM (inactive)	> 100 µM (inactive)	> 100 µM (inactive)		> 100 µM (inactive)	> 100 µM (inactive)	> 100 µM (inactive)	> 100 µM (inactive)	> 100 µM (inactive)
